Molecules are shown by their SMILES.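 Cells were grown in 96-well plates and exposed to each compound for 48 hours at five concentrations; endpoints were interpolated linearly between bracketing concentrations, or set to the highest concentration if not reached. GI50 is the concentration that inhibits growth by half.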 Calls of active or inactive are those of the source. Cut-off read from the data, not from the text of the source: active = GI50 up to about 1.1 µM and inactive = higher.

Among the test systems are SK-MEL-2; UACC-257; KM12; CCRF-CEM; NCI-H226; HL-60; SNB-75; U-251; NCI-H23; A549; COLO 205; MDA-MB-435; SK-MEL-5; LOX IMVI; MOLT-4; NCI-H522; MCF7; ACHN; SK-MEL-28; SN12C.
Holding throughout (assay): NCI tumour cell line growth inhibition, 48 h

Turning to `O=C(Nc1ccccc1C(=O)NCc1ccccc1)/C(=C/c1ccccc1O)NC(=O)c1ccccc1`, the GI50 in the assay with SK-MEL-2 is > 100 µM (inactive); in the assay with UACC-257, > 100 µM (inactive); with KM12 it was 4.67 µM (inactive); in the assay on CCRF-CEM it was > 100 µM (inactive); in the assay with NCI-H226, > 100 µM (inactive); with HL-60, 55.5 µM (inactive). For the same compound, the GI50 was 19.1 µM (inactive) in the assay on SNB-75; 52.5 µM (inactive) in the assay on U-251; > 100 µM (inactive) with NCI-H23; > 100 µM (inactive) with A549; > 100 µM (inactive) in the assay with COLO 205; 50.7 µM (inactive) with MDA-MB-435. Moreover, the GI50 with SK-MEL-5 was > 100 µM (inactive); in the assay with LOX IMVI, 98.2 µM (inactive); with MOLT-4, > 100 µM (inactive); with NCI-H522, > 100 µM (inactive); in the assay with MCF7, 5.32 µM (inactive); with ACHN it was 61 µM (inactive). The GI50 in the assay on SK-MEL-28 and in the assay with SN12C was > 100 µM (inactive) throughout.
As for `CC1=C[C@@H](C)C[C@]2(C)CC[C@H](O2)[C@]23CC[C@](C(=O)O)(C[C@H](O2)[C@@H]2O[C@@](C)(CC2=O)[C@@H](O)[C@H]2CC[C@@]4(CCC[C@@H](O4)[C@H](C)C(=O)O[C@H]4C[C@H]([C@]5(O)OCC[C@H](C)[C@@H]5O)O[C@H]4C=C1)O2)O3`, the GI50 in the assay on SK-MEL-2 is > 6.85 µM (inactive); in the assay with UACC-257, > 10 µM (inactive); in the assay on KM12 it was > 10 µM (inactive); in the assay with CCRF-CEM it was > 10 µM (inactive); in the assay on NCI-H226, > 5.71 µM (inactive); in the assay with HL-60, > 10 µM (inactive). For the same compound, the GI50 is 3.5 µM (inactive) with SNB-75; > 10 µM (inactive) with U-251; > 10 µM (inactive) with NCI-H23; > 10 µM (inactive) with A549; > 8.55 µM (inactive) in the assay on COLO 205; > 10 µM (inactive) in the assay with MDA-MB-435. In addition, the GI50 with SK-MEL-5 is > 7.23 µM (inactive); in the assay on LOX IMVI, > 6.92 µM (inactive); in the assay on MOLT-4 it was > 10 µM (inactive); in the assay with NCI-H522, > 7.71 µM (inactive); with MCF7, > 10 µM (inactive); with ACHN, > 10 µM (inactive). For the same compound, the GI50 is > 10 µM (inactive) in the assay with SK-MEL-28 and > 8.55 µM (inactive) in the assay on SN12C.
For `Cc1ccccc1N1C(N)=C(C#N)C(C#N)(C#N)C1c1ccccc1` (stereo not given), the GI50 is 25.9 µM (inactive) in the assay with SK-MEL-2; 17 µM (inactive) with UACC-257; 16.8 µM (inactive) in the assay on KM12; 14.7 µM (inactive) with CCRF-CEM; 20.7 µM (inactive) in the assay on NCI-H226; 18.5 µM (inactive) with HL-60. Also, the GI50 is 26 µM (inactive) in the assay with SNB-75; 16.7 µM (inactive) in the assay on U-251; 19.4 µM (inactive) in the assay with NCI-H23; 26.1 µM (inactive) in the assay on A549; 17.9 µM (inactive) with COLO 205; 17.7 µM (inactive) in the assay on MDA-MB-435. For the same compound, the GI50 in the assay with SK-MEL-5 was 15.8 µM (inactive); in the assay on LOX IMVI, 17.7 µM (inactive); with MOLT-4, 15.6 µM (inactive); in the assay with NCI-H522, 15.3 µM (inactive); in the assay with MCF7 it was 23.6 µM (inactive); in the assay on ACHN, 16.1 µM (inactive). The GI50 with SK-MEL-28 is 17.6 µM (inactive); in the assay on SN12C, 23.3 µM (inactive).
`CC[N+]1(C)CCC(O)(/C=C/c2ccc(Cl)c(Cl)c2)C(C(=O)/C=C/c2ccc(Cl)c(Cl)c2)C1` (stereo not given): the GI50 with SK-MEL-2 is 3.86 µM (inactive); in the assay on UACC-257, 2.38 µM (inactive); with KM12, 1.88 µM (inactive); in the assay with CCRF-CEM, 1.38 µM (inactive); in the assay on NCI-H226, 4.08 µM (inactive); in the assay on HL-60 it was 1.9 µM (inactive). In addition, the GI50 with SNB-75 was 3.78 µM (inactive); with U-251 it was 1.77 µM (inactive); with NCI-H23 it was 2.57 µM (inactive); in the assay with A549 it was 4.41 µM (inactive); in the assay on COLO 205, 2.65 µM (inactive); with MDA-MB-435 it was 2.12 µM (inactive). Moreover, the GI50 in the assay with SK-MEL-5 is 2.68 µM (inactive); in the assay with LOX IMVI, 1.39 µM (inactive); in the assay on MOLT-4 it was 2.28 µM (inactive); in the assay with NCI-H522 it was 1.77 µM (inactive); in the assay with MCF7 it was 2.36 µM (inactive); in the assay on ACHN it was 1.98 µM (inactive). The GI50 in the assay on SK-MEL-28 was 2.15 µM (inactive); in the assay with SN12C it was 1.88 µM (inactive).
In the case of `C=CC[C@H]1[C@@H](O[Si](C)(C)C(C)(C)C)[C@H](n2ccc(=O)[nH]c2=O)O[C@@H]1CO[Si](C)(C)C(C)(C)C`, the GI50 with SK-MEL-2 is 2.62 µM (inactive); with UACC-257, 2.45 µM (inactive); with KM12, 1.65 µM (inactive); in the assay on CCRF-CEM, 2.52 µM (inactive); with NCI-H226, 4.11 µM (inactive); with HL-60 it was 0.971 µM (active). Moreover, the GI50 is 1.34 µM (inactive) in the assay with SNB-75; 2.09 µM (inactive) with U-251; 2.14 µM (inactive) in the assay with NCI-H23; 1.85 µM (inactive) in the assay with A549; 1.79 µM (inactive) with COLO 205; 2 µM (inactive) in the assay with MDA-MB-435. For the same compound, the GI50 in the assay on SK-MEL-5 is 1.72 µM (inactive); in the assay on LOX IMVI, 1.63 µM (inactive); in the assay on MOLT-4, 1.99 µM (inactive); with NCI-H522 it was 1.76 µM (inactive); in the assay with MCF7, 1.77 µM (inactive); in the assay on ACHN, 2.33 µM (inactive). Moreover, the GI50 in the assay on SK-MEL-28 was 1.55 µM (inactive); with SN12C, 1.52 µM (inactive).

(Values after ChEMBL document CHEMBL1201862, “PubChem BioAssay data set” (2004).)
